Measurements from US20230232833A1, “Synergistic Compositions for the Control of Mosquito-Borne Diseases” (Universite d'Angers, priority 2020, published 2023).

Tests used:
[1] = tested on: Anopheles gambiae larvae of resistant strain KdrKis; assay: Larval sensitivity test (WHO-certified cup test), KdrKis strain; type: in vivo; settings: for LC10 - 24 hours / LC10 - 48 hours: KdrKis larvae, graphical projection from log-probit regression curves; for LC10 - 24 hours: 24 hours exposure; for LC10 - 48 hours: 48 hours exposure
Protocol: (§1) Methodology of the WHO-certified Test of the Sensitivity of Larvae to Insectivides and Repellents. The sensitivity to insecticides and repellents of the Anopheles gambia mosquito larvae of the sensitive Kis strain and of the resistant AcerKis and KdrKis strains, was determined using the larval sensitivity test (or WHO-certified cup test). The larvae, selected at the L3/L4 stages, were placed in cups containing 100 mL of osmosis water in the presence of the substance to be tested or only the solvent in the case of controls. Four cups of 25 larvae were exposed to one modality, for a total of 100 larvae. The mortality rate was observed 24 […] and 48 hours after exposure to the insecticide. The mortality rates presented herein were corrected for the mortality observed in the controls of each replicate according to the Abbott formula (Abbott, J. Econom. Entomol., 1925, 18: 265-267).

[2] = tested on: Anopheles gambiae larvae of resistant strain AcerKis; assay: Larval sensitivity test (cup test), AcerKis strain; type: in vivo; settings: for LC10 - 24 hours / LC10 - 48 hours: AcerKis larvae, graphical projection from log-probit regression curves; for LC10 - 24 hours: 24 hours exposure; for LC10 - 48 hours: 48 hours exposure
Protocol: Larval Testing Protocol. The larval sensitivity test or cup test, which was used in the present study, assesses the sensitivity of mosquito larvae to insecticides and repellents. The larvae were placed in cups containing 100 mL of osmosis water added with the substance to be tested or with only solvent in the case of the controls (see FIG. 3). Four containers (cups) of 25 larvae were exposed to one modality, for a total of 100 larvae. The mortality rate was observed 24 hours after exposure to the insecticide. The mosquitoes used were late L3/early L4 larvae (last larval stages) of Anopheles gambiae, sensitive Kis reference strain and a resistant strain AcerKis, grown in the MIVEGEC laboratory under standardized conditions.
as §1

Row | SMILES | Mortality rate of larvae ([1]; KdrKis, IR3535 alone 1000 to 4000 mg/L, 24 and 48 hours) | Mortality rate of larvae ([2]; AcerKis, IR3535 alone 1000 to 4000 mg/L, 24 and 48 hours) | LC10 - 24 hours [1] | LC10 - 48 hours [1] | LC10 - 24 hours [2] | LC10 - 48 hours [2]
1 | CCCCN(CCC(=O)OCC)C(C)=O [IR3535, ethyl N-acetyl-N-butyl-β-alaninate] | less than 5% | less than 5% | – | – | – | –
2 | N#C/N=C1\SCCN1Cc1ccc(Cl)nc1 [Thiacloprid, {(2Z)-3-[(6-Chloropyridin-3-yl)methyl]-1,3-thiazolidin-2-ylidene}cyanamide] | – | – | 0.02 mg/L | 0.01 mg/L | 0.02 mg/L | 0.01 mg/L
3 | CN1COCN(Cc2cnc(Cl)s2)C1=N[N+](=O)[O-] [Thiamethoxam, 3-[(2-Chloro-1,3-thiazol-5-yl)methyl]-5-methyl-N-nitro-1,3,5-oxadiazinan-4-imine] | – | – | 0.04 mg/L | 0.02 mg/L | 0.04 mg/L | 0.01 mg/L
